Test results as given in article PMC11877286, “Discovery of novel theophylline derivatives bearing tetrazole scaffold for the treatment of Alzheimer's disease” (RSC Advances, 2025).

Columns and labels:
[1] = target: T1, AChE (Homo sapiens, UniProt P22303); experiment: biochemical; conditions: five concentrations 256 μM to 16 μM, triplicate, pH 8.0 buffer
T1 construct: purchased Sigma-Aldrich
Procedure: AChE inhibition was assessed on a Varioskan Lux 96-well plate reader. […] The IC50 values were determined using TableCurve 2Dv4 software.

[2] = target: T2, BACE1 (Homo sapiens, UniProt P56817); experiment: BACE1 Inhibitor Screening Kit (FRET substrate); format: biochemical; conditions: 200 μM compound
T2 construct: purchased Beyotime Biotech
T2 sequence (P56817 46-501, species assumed): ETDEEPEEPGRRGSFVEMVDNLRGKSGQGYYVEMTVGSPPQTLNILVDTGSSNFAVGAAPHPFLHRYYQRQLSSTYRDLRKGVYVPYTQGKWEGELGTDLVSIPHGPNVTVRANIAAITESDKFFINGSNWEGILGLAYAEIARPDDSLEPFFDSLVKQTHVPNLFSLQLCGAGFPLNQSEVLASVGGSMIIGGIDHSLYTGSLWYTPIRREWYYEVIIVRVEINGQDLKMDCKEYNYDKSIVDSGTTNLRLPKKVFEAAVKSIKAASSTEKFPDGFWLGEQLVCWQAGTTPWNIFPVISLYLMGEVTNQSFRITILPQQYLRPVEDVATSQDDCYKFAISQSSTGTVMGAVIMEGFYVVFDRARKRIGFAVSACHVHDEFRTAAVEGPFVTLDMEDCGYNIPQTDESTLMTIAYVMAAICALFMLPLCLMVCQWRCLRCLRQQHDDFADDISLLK
Procedure: Briefly, BACE1 was incubated with various concentrations of compounds for 5 min at 37 °C in a black 96-well plate, followed by adding a specific fluorescence resonance energy transfer (FRET) substrate into the reaction mixture. […] The inhibitory percentage of BACE1 activity was calculated as following: I(%) = (ΔFIcontrol − ΔFIcompound) × 100/ΔFIcontrol, in which ΔFI denotes the change of fluorescent intensity per min. The inhibitory activity of compounds was initially screened at a fixed concentration of 200 μM.

T1 sequence (P22303 32-614): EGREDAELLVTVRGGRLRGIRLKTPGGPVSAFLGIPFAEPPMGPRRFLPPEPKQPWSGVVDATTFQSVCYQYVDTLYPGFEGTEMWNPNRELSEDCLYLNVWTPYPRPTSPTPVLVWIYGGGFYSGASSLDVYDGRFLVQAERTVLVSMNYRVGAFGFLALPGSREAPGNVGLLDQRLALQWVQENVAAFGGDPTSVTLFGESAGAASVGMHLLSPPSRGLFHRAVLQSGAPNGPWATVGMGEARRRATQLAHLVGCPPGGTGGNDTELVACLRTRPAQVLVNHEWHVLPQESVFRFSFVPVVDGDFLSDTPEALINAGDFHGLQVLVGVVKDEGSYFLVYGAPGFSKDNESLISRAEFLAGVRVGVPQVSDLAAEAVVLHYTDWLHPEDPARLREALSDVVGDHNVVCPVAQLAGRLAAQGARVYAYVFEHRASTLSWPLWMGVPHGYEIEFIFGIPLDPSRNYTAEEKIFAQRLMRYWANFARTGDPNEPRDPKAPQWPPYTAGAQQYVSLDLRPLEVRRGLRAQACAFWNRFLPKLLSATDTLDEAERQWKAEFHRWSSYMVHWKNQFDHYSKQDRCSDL

| SMILES | IC50 [1] [µM] | inhibition at 200 µM [2] [%] |
| --- | --- | --- |
| Cn1c(=O)c2c(ncn2Cc2nnn(CCCCC(=O)Nc3ccccc3)n2)n(C)c1=O [Compound 11] | 110 ± 17.5 | -0.32 ± 2.05 |
| Cn1c(=O)c2c(ncn2Cc2nnn(CCCCC(=O)Nc3ccc(I)cc3F)n2)n(C)c1=O [Compound 12] | 15.68 ± 0.06 | 18.2 ± 3.9 |
| COc1ccc(OC(=O)CCCCn2nnc(Cn3cnc4c3c(=O)n(C)c(=O)n4C)n2)cc1 [Compound 13] | 303 ± 34.1 | 1.4 ± 0.03 |
| Cn1c(=O)c2c(ncn2Cc2nnn(CCCCCC(=O)Nc3cccc(Cl)c3)n2)n(C)c1=O [Compound 14] | 153 ± 45 | -2.01 ± 0.83 |
| Cn1c(=O)c2c(ncn2Cc2nnn(CCCCCC(=O)Nc3ccc(Br)cc3)n2)n(C)c1=O [Compound 15] | 84.1 ± 20.2 | 8.94 ± 1.45 |
| Cn1c(=O)c2c(ncn2Cc2nnn(CCCCCC(=O)Nc3ccc(F)c(Cl)c3)n2)n(C)c1=O [Compound 16] | 115 ± 10.6 | -1.54 ± 1.19 |
| Cn1c(=O)c2c(ncn2Cc2nnn(CCCCCC(=O)Nc3ccc(I)cc3F)n2)n(C)c1=O [Compound 17] | 105 ± 12.8 | 18.7 ± 2.26 |
| Cn1c(=O)c2c(ncn2Cc2nnn(CCCCCC(=O)Oc3ccccc3)n2)n(C)c1=O [Compound 18] | 94.4 ± 8.27 | 0.07 ± 3.57 |
| COc1ccc(OC(=O)CCCCCn2nnc(Cn3cnc4c3c(=O)n(C)c(=O)n4C)n2)cc1 [Compound 19] | 267 ± 30.4 | -1.23 ± 0.35 |
| Cn1c(=O)c2c(ncn2Cc2nnn(CCCCCCC(=O)Nc3cccc(Cl)c3)n2)n(C)c1=O [Compound 20] | 221 ± 37.7 | 10.7 ± 0.54 |
| Cn1c(=O)c2c(ncn2Cc2nnn(CCCCCCC(=O)Nc3ccc(Cl)cc3)n2)n(C)c1=O [Compound 21] | 126 ± 22.4 | 12.2 ± 0.47 |
| Cn1c(=O)c2c(ncn2Cc2nnn(CCCCCCC(=O)Nc3ccc(Br)cc3)n2)n(C)c1=O [Compound 22] | 63.5 ± 2.48 | 1.56 ± 3.43 |
| Cn1c(=O)c2c(ncn2Cc2nnn(CCCCCCC(=O)Nc3ccc(F)c(Cl)c3)n2)n(C)c1=O [Compound 23] | 110 ± 17.2 | 12.6 ± 0.45 |
| COc1ccc(OC(=O)CCCCCCn2nnc(Cn3cnc4c3c(=O)n(C)c(=O)n4C)n2)cc1 [Compound 24] | 106 ± 25.7 | 0.74 ± 0.17 |
| Cn1c(=O)c2c(ncn2Cc2nnnn2CCCCCCC(=O)Nc2ccc(Br)cc2)n(C)c1=O [Compound 25] | 70.3 ± 0.1 | -0.48 ± 0.76 |
| Cn1c(=O)c2c(ncn2Cc2nnnn2CCCCCCC(=O)Nc2ccc(F)c(Cl)c2)n(C)c1=O [Compound 26] | 55.4 ± 18.6 | 8.89 ± 0.49 |
| Cn1c(=O)c2c(ncn2Cc2nnnn2CCCCCCC(=O)Nc2ccc(I)cc2F)n(C)c1=O [Compound 27] | 143 ± 23.1 | 7.69 ± 0.86 |
